Assay results published in US20240197761A1, “FUCOSYLATION AND IMMUNE MODULATION IN CANCER” (H. LEE MOFFITT CANCER CENTER AND RESEARCH INSTITUTE, INC., priority 2021, published 2024).
Entries after “also recorded” stand apart in the source; their conditions may differ.

Legend:
[1] = tested on: fucosylated HLA-DRB1 in WM793 cells; assay: Lectin-mediated proximity ligation assay (L-PLA) of fucosylated HLA-DRB1; type: cell-based, human; conditions: vs. DMSO
From the text: FIGS. 22A-221 show Schematic of L-PLA staining and verification of fucosylated HLA-DRB1 staining, which is weakly associated with tumor peripheral CD4+T cells; and the effects of L-fucose on tumor PD-L1 expression (a) Schematic of lectin-mediated proximity ligation analysis (L-PLA) using fucosylated HLA-DRB1 (fuco-HLA-DRB1) as an example. We stained for (i) HLA-DRB1 using […]-HLA-DRB1 followed by (+) oligo-conjugated PLA secondary and (ii) fucosylated glycan using biotinylated (“B”) AAL lectin followed by D-biotin followed by (−) oligo-conjugated PLA secondary. Ligated PLA oligos were subjected to rolling circle amplification PCR (RCA PCR), giving rise to fluorescent punctae. […] Single melanoma marker, AAL-FITC, and HLA-DRB1 channels are shown in white for clearer visualization. […] (d) FFPE melanoma tissues were subjected to L-PLA HLA-DRB1 staining ±500 mM L-fucose wash and subsequent staining with melanoma marker (MART1+SI10 cocktail), and DAPI. Single melanoma marker and fuco-HLA-DRB1 channels are shown in white for clear visualization. Total loss of fuco-HLA-DRB1 signal in the +L-fucose wash tissue confirms the fucose-specificity of L-PLA for fuco-HLA-DRB1. […]
Laboratories (Burlingame, CA)), on coverslips overnight in 4° C. […] Microscopy images were acquired using a Keyence BZ-X710, and images were process and analyzed using FIJI (NIH).

TUBO (mouse BC) [2] = assay: TUBO breast cancer growth in immunodeficient mice ± L-fuc; type: in vivo; conditions: immunodeficient NSG mice ± 500 mM L-fuc (FIG. 3A)
TUBO (mouse BC) [3] = assay: TUBO breast cancer growth and TILs in immunocompetent mice, L-fuc dose escalation; type: in vivo, Balb/C mice; conditions: for TUBO tumor growth: immunocompetent Balb/C mice, L-fuc dose escalation (FIG. 3B)
mouse splenic MDSC = assay: Splenic MDSC proliferation with L-fuc or 2FF; type: cell-based; conditions: FIG. 3E
[4] = tested on: MDSCs co-cultured with T cells; assay: MDSC immunosuppression of T cell proliferation (Cell Trace Violet) and IFNγ release/production in co-culture; type: cell-based, mouse; conditions: for T cell proliferation with pretreated splenic MDSCs: FIG. 3F; for IFNγ release / production by T cells with modulated MDSCs: FIG. 3G, FIG. 8B
Experimental: Tlhe myeloid cells, which were stimulated to imlmuno, suppressive MDSCs using GM/G-CSF, were divided into 3 treatment groups: (i) Treatment±250 uM L-fuc prior, duri ng, and after GM/G-CSF stimulation. Treatment±250 uM L-fuc during and after GM/G-CSF stimulation. (ii) Treatment±250 uM L-fuc only after GM/G-CSF stimulation. Greiss assay timepoints reier to hours after initial dose of L-fuc regardless of when cells were treated, L-fuc abrogated their ability to glenerate NO. […] We subsequently co-cultured the modulated MDSCs wilh T cells, which were then activated or not with CD3/CD28 beads and measured for IFNψ production. *. p •<0.05

mouse melanoma tumors = assay: Earlier mouse melanoma model with dietary fucose supplementation or FUK overexpression (tumor growth, CD45 and DX5 staining); type: in vivo
Experimental: To determine whether dietary or genetic modulation of fucosylation affects tumor growth and metastasis, we previously studied a mouse melanoma model in which tumor fucosylation was increased either by dietary supplementation (FIG. 2A) with 100 mM fucose or by overexpressing mouse FUK (FIG. 2B). […] To determine whether fucosylation affects tumor infiltration by immune cells, Immunofluorescent staining analysis of CD45 (general leukocyte marker, red) and DAPI (blue) was performed (FIG. 2C). To determine whether fucosylation affects tumor infiltration by NK cells, immunofluorescent staining analysis for DX5 (an NK cell marker, red) and DAPI (blue) was performed (FIG. 2D). Both NK cells and CD4+ T cells were elevated in samples from fucose supplemented mice.

## CC(=O)OC1O[C@@H](C)[C@@H](OC(C)=O)[C@@H](OC(C)=O)[C@@H]1F (stereo partly shown) [FUTi, 2F-peracteyl-fucose, reference compound]
[1]
  L-PLA staining of endogenous fucosylated HLA-DRB1: lost

## C[C@H](O)[C@@H](O)[C@@H](O)[C@H](O)C=O [L-fucose]
TUBO (mouse BC) [2]
  TUBO tumor growth: not effected
TUBO (mouse BC) [3]; 500 vs. 0 mM L-fuc, TUBO tumors (FIG. 3D)
  fold-change in TIL subsets: MDSCs: 3.1 fold
TUBO (mouse BC) [3]; FIG. 3C
  number of TILs/g tumor: increased
TUBO (mouse BC) [3]; following L-fucose administration (FIG. 3D)
  fold increase in TIL subsets: CD4 T cells: 3.1 fold
TUBO (mouse BC) [3]
  TUBO tumor growth: dose dependent decrease
TUBO (mouse BC) [3]; listed as L-fuc
  TUBO tumor growth: suppresses
Mouse splenic MDSC
  MDSC proliferation / MDSC populations: increased
Mouse splenic MDSC; listed as L-fuc
  MDSC proliferation / MDSC populations: increases
[4]
  T cell proliferation with pretreated splenic MDSCs: increased
  IFNγ release / production by T cells with modulated MDSCs: increased
[4]; listed as L-fuc
  T cell proliferation with pretreated splenic MDSCs: decreases splenic MDSC immunosuppression
  IFNγ release / production by T cells with modulated MDSCs: significantly stimulated; also recorded: decreases splenic MDSC immunosuppression
Mouse melanoma tumors; dietary L-fucose supplementation, mouse models
  block of tumor growth and metastasis: > 50%
Mouse melanoma tumors; dietary supplementation with 100 mM fucose (FIG. 2A)
  tumor suppression: increased tumor suppression
Mouse melanoma tumors; fucose supplemented mice (FIG. 2C, 2D)
  NK cells and CD4+ T cells in tumor samples: elevated
